From publication PMC10065791 (eLife, 2023)

Assays:
I84V mutant protease = molecular target: T1, I84V mutant protease (Human immunodeficiency virus type 1 group M subtype B, UniProt P12497, I572V/Q495K); set-up: method as in Lockbaum et al. (ACS Infect Dis. 2019 Feb 8; 5 (2): 316–325); settings: I84V drug-resistant protease variant; previously reported; ref Lockbaum et al. (ACS Infect Dis. 2019 Feb 8; 5 (2): 316–325); cited from earlier work
T1 construct: the gene encoding the desired HIV-1 protease was subcloned into the heat-inducible pXC35 expression vector; made in house

wild-type NL4-3 protease = molecular target: T2, wild-type NL4-3 protease (Human immunodeficiency virus type 1 group M subtype B, UniProt P12497, Q495K); set-up: method as in Lockbaum et al. (ACS Infect Dis. 2019 Feb 8; 5 (2): 316–325); settings: previously reported, ref Lockbaum et al. (ACS Infect Dis. 2019 Feb 8, 5 (2): 316–325), read-out: Ki WT; cited from earlier work
T2 construct: the gene encoding the desired HIV-1 protease was subcloned into the heat-inducible pXC35 expression vector; made in house

[1] = molecular target: T3, I50V/A71V mutant protease (Human immunodeficiency virus type 1 group M subtype B, UniProt P12497, A559V/I538V/Q495K); set-up: method as in Lockbaum et al. (ACS Infect Dis. 2019 Feb 8; 5 (2): 316–325); settings: I50V/A71V drug-resistant protease variant; previously reported; ref Lockbaum et al. (ACS Infect Dis. 2019 Feb 8; 5 (2): 316–325); cited from earlier work
T3 construct: the gene encoding the desired HIV-1 protease was subcloned into the heat-inducible pXC35 expression vector; made in house

[2] = test system: mixture of 26 isogenic NL4-3 protease mutant viruses; assay: Selection for resistance in CEMx174 culture with escalating inhibitor, start mixture of 26 isogenic single mutants, Primer ID deep sequencing; format: cell-based, HIV-1
Description: . The selection experiments were performed under two separate starting conditions: first when the starting virus was generated from the NL4-3 clone (this clone closely approximates the clade B consensus for the protease amino acid sequence and will be referred to as ‘wild type’), then again when the starting virus was a mixture of 26 isogenic viruses each with a single mutation associated with drug resistance in the NL4-3 background. […] The initial inhibitor concentration started at low nanomolar concentrations and increased by a factor of 1.5 with each subsequent viral passage (the inhibitor concentration was increased only after the virus spread efficiently through the culture). […] For technical reasons, only five of the selections starting with the mixture of mutants reached an inhibitor concentration as high as 400 nM and are reported here (Figure 2—figure supplement 3). […]
CEMx174 cells were maintained in RPMI 1640 medium with 10% fetal calf serum and penicillin-streptomycin. […] Cell phenotypes were monitored for their ability to generate virus after transfection (293Ts), support viral replication (CEMx174), or report viral infection (TZM-bl). […]

## CCC(CC)CN(C[C@@H](O)[C@H](Cc1ccccc1)NC(=O)O[C@H]1CO[C@H]2OCC[C@H]21)S(=O)(=O)c1ccc(N)cc1 [UMASS-6]
I84V mutant protease
  Ki: 0.0128 ± 0.0031 nM
wild-type NL4-3 protease
  Ki: < 5 pM
[1]
  Ki: 0.1 ± 0.0099 nM
[2]; variant 13V/16E/32I/33F/45I/46I/54L/71V/76V/82F/84V, passage 53, [PI] 5000 nM
  Abundance of variant at the last time point: 62.8%

## CCC(CC)CN(C[C@@H](O)[C@H](Cc1ccccc1)NC(=O)O[C@H]1CO[C@H]2OCC[C@H]21)S(=O)(=O)c1ccc(OC)cc1 [UMASS-7]
[2]; variant 10F/46I/50V/63P/85V, passage 58, [PI] 400 nM
  Abundance of variant at the last time point: 21.0%
